These compounds were tested against Tie-2 kinase enzyme (Homo sapiens, UniProt Q02763) (assay: Tie-2 Homogenous Time Resolved Flourescent (HTRF) kinase assay). Conditions: 0.01 mM ATP, about 90 minutes at RT; read-out: IC50 for the inhibition of Tie-2 as measured by the HTRF assay.
Assay type: biochemical
Description: IC50's for the inhibition of the Tie-2 kinase enzyme for individual compounds were measured using an HTRF assay, utilizing the following procedure:
In a 96 well plate (available from Costar Co.) was placed 1 uL of each test and standard compound per well in 100% DMSO having a 25 uM final compound concentration (3-fold, 10 point dilution). To each well was added 20 uL of a reaction mix formed from […], 0.05% BSA (0.1 uL; from a 10% stock solution available from Sigma-Aldrich Co.), 0.002 mM of BLC HER-2 KKK (Biotinylated Long chain peptide; 0.04 uL; from a […] stock solution), 0.01 mM concentration of ATP (0.02 uL; commercially available from Sigma-Aldrich Co.) and the remaining solution was water (15.84 uL) to make to a total volume of 20 uL/well.
The reaction was initiated in each well by adding 20 uL per well of an enzyme preparation consisting of a 50 mM concentration of Hepes (1.0 uL; from a 1000 mM stock solution commercially available from Gibco Co.), 0.05% concentration of BSA (0.1 uL), 4 mM of DTT (0.08 uL; from a 1000 mM stock solution available from Sigma-Aldrich Co.), a 2.4×10^−7 concentration of Tie-2 (0.02 uL, from a 4 mM concentration stock), with the remaining volume being water (18.8 uL) to dilute the enzyme preparation to a total volume of 20 uL. The plate was incubated for about 90 minutes at RT. After incubation, a 160 uL of a filtered detection mixture, prepared from 0.001 mg/ml of SA-APC (0.0765 uL; available as a 2.09 mg/ml stock solution from Gibco), 0.03125 nM concentration of Eu-Ab (0.1597 uL; available in a 31.3 nM stock solution from Gibco), with the remaining volume being Detection buffer (159.73 uL), was added to each well to stop the reaction therein. The plate was then allowed to equilibrate for about 3 hr and read on a Ruby Star fluorescent reader (available from BMG Technologies, Inc.) using a 4 parameter fit using activity base to calculate the corresponding IC50's for the test and standard compounds in each well.

Tie-2 kinase enzyme, sequence (Q02763 23-1124): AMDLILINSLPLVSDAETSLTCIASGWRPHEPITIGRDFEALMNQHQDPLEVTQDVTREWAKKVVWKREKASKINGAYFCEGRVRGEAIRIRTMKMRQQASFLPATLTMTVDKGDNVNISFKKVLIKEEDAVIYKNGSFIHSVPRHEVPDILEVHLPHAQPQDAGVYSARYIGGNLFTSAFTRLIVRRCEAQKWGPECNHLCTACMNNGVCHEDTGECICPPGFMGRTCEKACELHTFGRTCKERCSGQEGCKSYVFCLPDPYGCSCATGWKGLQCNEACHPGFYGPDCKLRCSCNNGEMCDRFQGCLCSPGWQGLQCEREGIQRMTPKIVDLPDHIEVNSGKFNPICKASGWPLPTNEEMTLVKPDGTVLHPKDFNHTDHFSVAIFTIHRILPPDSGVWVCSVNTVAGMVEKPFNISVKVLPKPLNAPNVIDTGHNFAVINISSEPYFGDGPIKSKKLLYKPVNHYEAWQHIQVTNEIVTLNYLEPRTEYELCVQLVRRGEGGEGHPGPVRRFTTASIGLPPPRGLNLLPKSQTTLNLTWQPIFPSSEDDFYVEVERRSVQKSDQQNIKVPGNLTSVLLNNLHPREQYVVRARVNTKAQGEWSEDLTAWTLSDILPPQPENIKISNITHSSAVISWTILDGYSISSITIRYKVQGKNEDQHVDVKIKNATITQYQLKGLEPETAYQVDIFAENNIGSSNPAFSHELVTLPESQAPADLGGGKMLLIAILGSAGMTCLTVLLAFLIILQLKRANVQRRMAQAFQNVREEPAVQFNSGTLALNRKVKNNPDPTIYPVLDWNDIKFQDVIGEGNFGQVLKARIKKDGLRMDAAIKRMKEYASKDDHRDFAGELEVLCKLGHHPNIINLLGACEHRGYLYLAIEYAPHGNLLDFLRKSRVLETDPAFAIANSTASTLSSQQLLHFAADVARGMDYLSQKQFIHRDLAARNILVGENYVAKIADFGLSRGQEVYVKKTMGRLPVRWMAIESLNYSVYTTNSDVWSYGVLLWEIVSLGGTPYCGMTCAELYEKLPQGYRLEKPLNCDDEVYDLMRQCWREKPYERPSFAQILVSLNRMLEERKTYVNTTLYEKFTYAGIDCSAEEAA

| Structure (SMILES) | IC50 |
| --- | --- |
| Cc1ccc(C(=O)Nc2cccc(C(C)C)c2)cc1Oc1ncccc1-c1cn[nH]c1 [Example 1, 3-(3-(1H-pyrazol-4-yl)pyridin-2-yloxy)-N-(3-isopropylphenyl)-4-methylbenzamide] | ≤ 100 nM |
| Cc1ccc(C(=O)Nc2cccc(C(C)C)c2)cc1Nc1ncccc1-c1nnn[nH]1 [Example 3, 3-(3-(1H-tetrazol-5-yl)pyridin-2-ylamino)-N-(3-isopropylphenyl)-4-methylbenzamide] | ≤ 1000 nM |
| Cc1ccc(C(=O)Nc2cccc(C(C)C)c2)cc1Oc1ncccc1-c1cnn(Cc2ccccc2)c1 [Example 10, 3-(3-(1-benzyl-1H-pyrazol-4-yl)pyridin-2-yloxy)-N-(3-isopropylphenyl)-4-methylbenzamide] | ≤ 500 nM |
| Cc1ccc(C(=O)Nc2cccc(C(C)C)c2)cc1Nc1ncccc1-c1nnn[nH]1 [Example 12, 3-(3-(1H-tetrazol-5-yl)pyridin-2-ylamino)-N-(3-isopropylphenyl)-4-methylbenzamide] | ≤ 500 nM |
| Cc1ccc(C(=O)Nc2cccc(C(C)C)c2)cc1Oc1ncccc1-c1cnco1 [Example 14, N-(3-isopropylphenyl)-4-methyl-3-(3-(oxazol-5-yl)pyridin-2-yloxy)benzamide] | ≤ 100 nM |
| Cc1ccc(C(=O)Nc2cccc(C(F)(F)F)c2)cc1Oc1ncccc1-c1ccn[nH]1 [Example 15, 3-(3-(1H-pyrazol-5-yl)pyridin-2-yloxy)-4-methyl-N-(3-(trifluoromethyl)phenyl)benzamide] | ≤ 500 nM |
| Cc1ccc(C(=O)Nc2cccc(C(C)C)c2)cc1Oc1ccccc1-c1cnco1 [Example 18, N-(3-isopropylphenyl)-4-methyl-3-(2-(oxazol-5-yl)phenoxy)benzamide] | ≤ 100 nM |
| Cc1ccc(C(=O)Nc2cc(C(F)(F)F)ccc2N(C)CCCN(C)C)cc1Oc1ccccc1-c1cnco1 [Example 19, N-(2-((3-(dimethylamino)propyl)(methyl)amino)-5-(trifluoromethyl)phenyl)-4-methyl-3-(2-(oxazol-5-yl)phenoxy)benzamide] | ≤ 500 nM |
| O=C(Nc1ccc(Oc2ncccc2-c2cn[nH]c2)cc1)c1ccccc1Nc1ccccc1 [Example 23, N-(4-(3-(1H-pyrazol-4-yl)pyridin-2-yloxy)phenyl)-2-(phenylamino)benzamide] | ≤ 1000 nM |

Results, then the compound that gave them:

| IC50 | Structure (SMILES) |
| --- | --- |
| ≤ 500 nM | CN(C)CCCN(C)c1ccc(C(F)(F)F)cc1NC(=O)c1cc(Oc2ncccc2-c2cnco2)ccc1F [Example 2, N-(2-((3-(dimethylamino)propyl)(methyl)amino)-5-(trifluoromethyl)phenyl)-2-fluoro-5-(3-(oxazol-5-yl)pyridin-2-yloxy)benzamide] |
| ≤ 100 nM | COc1ccc(C2CCCCC2)cc1NC(=O)c1ccc(C)c(Oc2ncccc2-c2cn[nH]c2)c1 [Example 11, 3-(3-(1H-pyrazol-4-yl)pyridin-2-yloxy)-N-(5-cyclohexyl-2-methoxyphenyl)-4-methylbenzamide] |
| ≤ 1000 nM | O=C(Nc1cccc(OC(F)(F)F)c1)c1cc(Oc2ncccc2-c2cnco2)ccc1F [Example 16, 2-fluoro-5-(3-(oxazol-5-yl)pyridin-2-yloxy)-N-(3-(trifluoromethoxy)phenyl)benzamide] |
| ≤ 500 nM | Cc1ccc(C(=O)Nc2cc(C(F)(F)F)ccc2N(C)CCCN(C)C)cc1Oc1ncccc1-c1cnco1 [Example 20, N-(2-((3-(dimethylamino)propyl)(methyl)amino)-5-(trifluoromethyl)phenyl)-4-methyl-3-(3-(oxazol-5-yl)pyridin-2-yloxy)benzamide] |
| ≤ 100 nM | Cc1ccc(C(=O)Nc2cccc(C(F)(F)F)c2)cc1Oc1ncccc1-c1cnco1 [Example 22, 4-methyl-3-(3-(oxazol-5-yl)pyridin-2-yloxy)-N-(3-(trifluoromethyl)phenyl)benzamide] |
